Measurements taken from article doi:10.1101/2023.10.20.563248v1 (biorxiv, 2023).

Experiments:
LIMK1 = LIMK1 (Homo sapiens, UniProt P53667); test: NanoBRET tracer displacement, HEK293T; format: cell-based; conditions: intact cells; […] °C, […] h; competitive with tracer
PDGFRb = PDGFRb (Homo sapiens, UniProt P09619); conditions: 1 µM; inhibitor
CDK7 = CDK7 (Homo sapiens, UniProt P50613); conditions: 1 µM; inhibitor
CDK9/CycT1 = CDK9/CycT1 (Homo sapiens, UniProt P50750); conditions: 1 µM; inhibitor
RPS6KA5 = RPS6KA5 (Homo sapiens, UniProt O75582); conditions: 1 µM; inhibitor
CAMKK1 = CAMKK1 (Homo sapiens, UniProt Q8N5S9); conditions: 1 µM; inhibitor
MKNK1 = MKNK1 (Homo sapiens, UniProt Q9BUB5); conditions: 1 µM; inhibitor
EIF2AK3 = EIF2AK3 (Homo sapiens, UniProt Q9NZJ5); conditions: 1 µM; inhibitor
EPHB3 = EPHB3 (Homo sapiens, UniProt P54753); conditions: 1 µM; inhibitor
ERBB2 = ERBB2 (Homo sapiens, UniProt P04626); conditions: 1 µM; inhibitor
PKCz = PKCz (Homo sapiens, UniProt Q05513); conditions: 1 µM; inhibitor
PKCmu = PKCmu (Homo sapiens, UniProt Q15139); conditions: 1 µM; inhibitor
AurC = AurC (Homo sapiens, UniProt Q9UQB9); conditions: 1 µM; inhibitor
CAMKK2 = CAMKK2 (Homo sapiens, UniProt Q96RR4); conditions: 1 µM; inhibitor
CDK18 = CDK18 (Homo sapiens, UniProt Q07002); conditions: 1 µM; inhibitor
STK25 = STK25 (Homo sapiens, UniProt O00506); conditions: 1 µM; inhibitor
MASTL = MASTL (Homo sapiens, UniProt Q96GX5); conditions: 1 µM; inhibitor
RET = RET (Homo sapiens, UniProt P07949); conditions: 1 µM; inhibitor
PAK7 = PAK7 (Homo sapiens, UniProt Q9P286); conditions: 1 µM; inhibitor
TLK1 = TLK1 (Homo sapiens, UniProt Q9UKI8); conditions: 1 µM; inhibitor
EPHB4 = EPHB4 (Homo sapiens, UniProt P54760); conditions: 1 µM; inhibitor
PKCbeta2 = PKCbeta2 (Homo sapiens, UniProt P05771); conditions: 1 µM; inhibitor
TTK = TTK (Homo sapiens, UniProt P33981); conditions: 1 µM; inhibitor
CK2a2 = CK2a2 (Homo sapiens, UniProt P19784); conditions: 1 µM; inhibitor
DYRK4 = DYRK4 (Homo sapiens, UniProt Q9NR20); conditions: 1 µM; inhibitor
CK2a1 = CK2a1 (Homo sapiens, UniProt P68400); conditions: 1 µM; inhibitor
MLK4 = MLK4 (Homo sapiens, UniProt Q5TCX8); conditions: 1 µM; inhibitor
INSR = INSR (Homo sapiens, UniProt P06213); conditions: 1 µM; inhibitor
GRK2 = GRK2 (Homo sapiens, UniProt P25098); conditions: 1 µM; inhibitor
ERK1 = ERK1 (Homo sapiens, UniProt P27361); conditions: 1 µM; inhibitor
CDK9 = CDK9 (Homo sapiens, UniProt P50750); conditions: 1 µM; inhibitor

Chain of CK2a2 (P19784 whole entry): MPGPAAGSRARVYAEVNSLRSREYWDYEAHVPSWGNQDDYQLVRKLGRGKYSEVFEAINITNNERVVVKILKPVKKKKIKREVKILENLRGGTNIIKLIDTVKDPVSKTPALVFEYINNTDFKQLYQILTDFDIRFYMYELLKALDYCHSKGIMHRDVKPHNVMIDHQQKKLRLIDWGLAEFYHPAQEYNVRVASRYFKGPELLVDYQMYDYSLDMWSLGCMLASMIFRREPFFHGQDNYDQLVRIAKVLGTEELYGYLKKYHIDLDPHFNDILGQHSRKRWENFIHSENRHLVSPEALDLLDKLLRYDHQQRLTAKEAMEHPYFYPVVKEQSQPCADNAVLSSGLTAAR
Chain of PKCz (Q05513 whole entry): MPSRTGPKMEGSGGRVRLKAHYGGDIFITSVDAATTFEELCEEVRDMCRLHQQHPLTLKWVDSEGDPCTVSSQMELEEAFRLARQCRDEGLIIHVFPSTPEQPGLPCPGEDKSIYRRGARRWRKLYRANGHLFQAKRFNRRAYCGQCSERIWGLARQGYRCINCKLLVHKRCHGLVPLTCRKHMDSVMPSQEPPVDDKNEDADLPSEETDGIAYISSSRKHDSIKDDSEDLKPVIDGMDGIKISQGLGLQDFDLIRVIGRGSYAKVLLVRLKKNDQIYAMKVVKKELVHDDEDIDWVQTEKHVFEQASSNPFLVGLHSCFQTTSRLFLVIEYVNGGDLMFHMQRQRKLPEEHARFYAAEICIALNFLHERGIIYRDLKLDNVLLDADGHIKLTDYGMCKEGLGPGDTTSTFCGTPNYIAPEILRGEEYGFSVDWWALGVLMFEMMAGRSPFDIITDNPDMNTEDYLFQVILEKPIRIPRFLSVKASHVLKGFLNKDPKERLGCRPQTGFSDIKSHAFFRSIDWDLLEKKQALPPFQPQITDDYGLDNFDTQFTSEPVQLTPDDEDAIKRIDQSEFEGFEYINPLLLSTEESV
Chain of CAMKK1 (Q8N5S9 whole entry): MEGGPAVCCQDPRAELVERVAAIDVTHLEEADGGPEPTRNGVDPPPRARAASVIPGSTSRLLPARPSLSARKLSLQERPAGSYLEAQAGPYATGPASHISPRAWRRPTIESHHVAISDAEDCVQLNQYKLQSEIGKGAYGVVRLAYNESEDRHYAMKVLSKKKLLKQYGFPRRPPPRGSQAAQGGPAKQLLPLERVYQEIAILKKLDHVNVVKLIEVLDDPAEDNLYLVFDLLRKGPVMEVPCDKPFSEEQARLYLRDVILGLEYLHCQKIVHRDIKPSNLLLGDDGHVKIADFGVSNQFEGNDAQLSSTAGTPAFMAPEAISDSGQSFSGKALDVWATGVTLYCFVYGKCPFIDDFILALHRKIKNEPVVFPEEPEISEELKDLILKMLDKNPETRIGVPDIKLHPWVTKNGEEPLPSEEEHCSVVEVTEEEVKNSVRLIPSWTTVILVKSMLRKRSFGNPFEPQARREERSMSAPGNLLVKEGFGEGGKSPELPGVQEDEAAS
Chain of PKCbeta2 (P05771 whole entry): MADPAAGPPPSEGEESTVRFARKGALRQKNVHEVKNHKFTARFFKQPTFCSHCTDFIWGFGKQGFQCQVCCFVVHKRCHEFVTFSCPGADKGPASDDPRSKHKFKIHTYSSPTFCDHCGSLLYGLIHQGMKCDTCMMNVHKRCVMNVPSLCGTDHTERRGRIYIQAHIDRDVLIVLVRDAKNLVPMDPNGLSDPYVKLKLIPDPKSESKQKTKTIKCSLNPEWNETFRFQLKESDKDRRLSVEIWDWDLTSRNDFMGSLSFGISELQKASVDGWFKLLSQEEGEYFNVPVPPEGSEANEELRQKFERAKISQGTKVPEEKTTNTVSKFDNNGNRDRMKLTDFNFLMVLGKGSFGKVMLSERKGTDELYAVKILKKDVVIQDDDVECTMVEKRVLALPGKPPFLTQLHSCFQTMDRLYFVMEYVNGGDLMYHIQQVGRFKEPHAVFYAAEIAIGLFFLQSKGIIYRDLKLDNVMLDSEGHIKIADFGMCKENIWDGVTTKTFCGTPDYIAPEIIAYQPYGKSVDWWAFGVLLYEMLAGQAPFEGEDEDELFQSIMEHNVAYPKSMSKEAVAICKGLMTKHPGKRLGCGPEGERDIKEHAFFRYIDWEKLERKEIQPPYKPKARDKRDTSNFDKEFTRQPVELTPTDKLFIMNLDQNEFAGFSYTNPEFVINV
Chain of MKNK1 (Q9BUB5 whole entry): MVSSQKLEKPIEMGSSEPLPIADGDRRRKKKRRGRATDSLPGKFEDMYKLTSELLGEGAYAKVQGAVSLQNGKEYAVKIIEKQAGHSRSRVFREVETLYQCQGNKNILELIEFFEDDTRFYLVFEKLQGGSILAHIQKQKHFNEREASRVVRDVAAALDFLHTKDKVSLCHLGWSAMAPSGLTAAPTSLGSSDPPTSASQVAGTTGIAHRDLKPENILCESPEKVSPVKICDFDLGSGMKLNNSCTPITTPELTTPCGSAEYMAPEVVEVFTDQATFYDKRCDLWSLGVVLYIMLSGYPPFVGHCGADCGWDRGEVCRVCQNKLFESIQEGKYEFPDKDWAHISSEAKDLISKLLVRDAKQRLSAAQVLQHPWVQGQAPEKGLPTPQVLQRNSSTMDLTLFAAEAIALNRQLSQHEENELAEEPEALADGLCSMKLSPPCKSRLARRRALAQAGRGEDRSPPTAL
Chain of TLK1 (Q9UKI8 whole entry): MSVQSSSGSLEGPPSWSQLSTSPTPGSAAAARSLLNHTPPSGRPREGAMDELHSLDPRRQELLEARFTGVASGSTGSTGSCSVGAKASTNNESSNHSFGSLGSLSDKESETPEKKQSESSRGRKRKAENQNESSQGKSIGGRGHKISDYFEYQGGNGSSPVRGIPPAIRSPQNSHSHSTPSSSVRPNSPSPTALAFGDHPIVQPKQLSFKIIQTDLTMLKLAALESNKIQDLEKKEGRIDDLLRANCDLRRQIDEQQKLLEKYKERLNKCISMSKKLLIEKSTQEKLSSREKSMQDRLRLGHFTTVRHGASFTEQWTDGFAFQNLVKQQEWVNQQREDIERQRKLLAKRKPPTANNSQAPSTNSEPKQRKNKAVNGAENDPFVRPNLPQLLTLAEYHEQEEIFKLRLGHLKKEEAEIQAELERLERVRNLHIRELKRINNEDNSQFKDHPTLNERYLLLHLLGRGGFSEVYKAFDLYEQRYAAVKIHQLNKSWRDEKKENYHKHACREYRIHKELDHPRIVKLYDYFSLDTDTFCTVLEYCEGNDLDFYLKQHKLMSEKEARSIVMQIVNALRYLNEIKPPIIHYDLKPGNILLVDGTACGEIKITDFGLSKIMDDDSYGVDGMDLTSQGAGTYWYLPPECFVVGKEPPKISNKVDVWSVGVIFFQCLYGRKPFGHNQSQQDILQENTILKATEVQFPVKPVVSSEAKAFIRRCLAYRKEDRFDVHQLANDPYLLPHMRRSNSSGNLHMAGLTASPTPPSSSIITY
Chain of CDK7 (P50613 whole entry): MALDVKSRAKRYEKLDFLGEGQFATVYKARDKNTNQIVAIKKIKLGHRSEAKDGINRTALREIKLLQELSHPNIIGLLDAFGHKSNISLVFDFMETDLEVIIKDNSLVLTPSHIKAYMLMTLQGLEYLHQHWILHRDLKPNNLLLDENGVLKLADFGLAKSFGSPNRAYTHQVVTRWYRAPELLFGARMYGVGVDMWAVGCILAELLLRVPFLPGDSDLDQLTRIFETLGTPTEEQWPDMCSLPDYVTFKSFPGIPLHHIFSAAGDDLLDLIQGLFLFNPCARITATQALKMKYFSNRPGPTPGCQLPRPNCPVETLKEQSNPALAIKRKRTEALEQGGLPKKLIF
Chain of AurC (Q9UQB9 whole entry): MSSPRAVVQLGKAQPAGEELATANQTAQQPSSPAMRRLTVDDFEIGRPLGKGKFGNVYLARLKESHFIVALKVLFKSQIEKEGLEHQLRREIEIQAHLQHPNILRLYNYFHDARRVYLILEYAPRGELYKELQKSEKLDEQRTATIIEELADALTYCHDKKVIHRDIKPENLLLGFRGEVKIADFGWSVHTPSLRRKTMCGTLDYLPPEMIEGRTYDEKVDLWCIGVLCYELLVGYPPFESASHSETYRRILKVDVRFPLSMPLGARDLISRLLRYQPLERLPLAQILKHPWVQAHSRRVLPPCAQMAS
Chain of PAK7 (Q9P286 whole entry): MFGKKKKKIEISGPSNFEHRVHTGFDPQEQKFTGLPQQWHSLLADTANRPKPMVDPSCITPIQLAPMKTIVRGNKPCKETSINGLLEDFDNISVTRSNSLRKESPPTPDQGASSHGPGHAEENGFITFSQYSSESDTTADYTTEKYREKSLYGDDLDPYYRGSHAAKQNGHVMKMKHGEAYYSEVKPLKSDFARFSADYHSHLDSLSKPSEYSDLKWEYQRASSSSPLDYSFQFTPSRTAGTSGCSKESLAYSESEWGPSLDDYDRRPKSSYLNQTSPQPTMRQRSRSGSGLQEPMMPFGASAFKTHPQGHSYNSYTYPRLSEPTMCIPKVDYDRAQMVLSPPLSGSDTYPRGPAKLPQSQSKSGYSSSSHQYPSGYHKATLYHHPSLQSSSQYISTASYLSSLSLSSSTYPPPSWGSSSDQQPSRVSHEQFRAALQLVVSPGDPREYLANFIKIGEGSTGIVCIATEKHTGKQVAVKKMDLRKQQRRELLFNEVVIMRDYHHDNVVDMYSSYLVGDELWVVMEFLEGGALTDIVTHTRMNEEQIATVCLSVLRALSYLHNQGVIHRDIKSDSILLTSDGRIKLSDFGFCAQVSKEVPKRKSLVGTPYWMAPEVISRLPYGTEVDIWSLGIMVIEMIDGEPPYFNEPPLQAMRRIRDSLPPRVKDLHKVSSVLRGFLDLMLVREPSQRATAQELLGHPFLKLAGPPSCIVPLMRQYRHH

- EC50 (LIMK1): 5.67 ± 1.02 µM
- 21c Remaining activity, percent of control [%] (PDGFRb): 71.2%
- 21c Remaining activity, percent of control [%] (CDK7): 112.5%
- 21c Remaining activity, percent of control [%] (CDK9/CycT1): 85.7%
- 21c Remaining activity, percent of control [%] (RPS6KA5): 108.9%
- 21c Remaining activity, percent of control [%] (CAMKK1): 94.6%
- 21c Remaining activity, percent of control [%] (MKNK1): 97.3%
- 21c Remaining activity, percent of control [%] (EIF2AK3): 87.8%
- 21c Remaining activity, percent of control [%] (EPHB3): 105.4%
- 21c Remaining activity, percent of control [%] (ERBB2): 94.1%
- 21c Remaining activity, percent of control [%] (PKCz): 96.3%
- 21c Remaining activity, percent of control [%] (PKCmu): 96.1%
- 21c Remaining activity, percent of control [%] (AurC): 90.2%
- 21c Remaining activity, percent of control [%] (CAMKK2): 90.8%
- 21c Remaining activity, percent of control [%] (CDK18): 96.7%
- 21c Remaining activity, percent of control [%] (STK25): 57.2%
- 21c Remaining activity, percent of control [%] (MASTL): 118.0%
- 21c Remaining activity, percent of control [%] (RET): 122.5%
- 21c Remaining activity, percent of control [%] (PAK7): 87.1%
- 21c Remaining activity, percent of control [%] (TLK1): 92.4%
- 21c Remaining activity, percent of control [%] (EPHB4): 86.1%
- 21c Remaining activity, percent of control [%] (PKCbeta2): 100.8%
- 21c Remaining activity, percent of control [%] (TTK): 97.7%
- 21c Remaining activity, percent of control [%] (CK2a2): 85.6%
- 21c Remaining activity, percent of control [%] (DYRK4): 95.6%
- 21c Remaining activity, percent of control [%] (CK2a1): 95.5%
- 21c Remaining activity, percent of control [%] (MLK4): 99.1%
- 21c Remaining activity, percent of control [%] (INSR): 98.0%
- 21c Remaining activity, percent of control [%] (GRK2): 96.7%
- 21c Remaining activity, percent of control [%] (ERK1): 85.8%
- 21c Remaining activity, percent of control [%] (CDK9): 83.3%
SMILES: O=C1NCCCCCNc2nc(c3ccccc3n2)Nc2cc1[nH]n2 [21c, (Z)-3^1H-2,5,11-triaza-1(4,2)-quinazolina-3(3,5)-pyrazolacycloundecaphan-4-one]
